Reference: patent US20160194274A1, “PHENANTHRENE DERIVATIVES FOR USE AS MEDICAMENTS” (VALENTIA BIOPHARMA, priority 2012, published 2016)

Tests used:
Type in all cases: binding
CGG FAM-RNA probe = assay: Gel retardation assay with FAM-CGG probe (FXTAS)
Description: (§1) FIG. 9. VLT002 binding assessment in additional toxic repeats linked to disease through hairpin formation.
(§2) Fluorescence Electrophoretic Mobility Shift Assay to test RNA-compound binding. Briefly, an aliquot of carboxyfluorescein (FAM)-CUG10 RNA (DM1, HDL2, SCA8; see FIG. 6) was heated at 70° C. for 5 min and diluted to 300 nM. The binding reaction with compounds was then carried out as described in (Garcia-Lopez A et al. Proc. Natl. Acad. Sci. USA. 108(29):11866-71 (2011)). The reaction mix was loaded onto 8% polyacrylamide nondenaturing gels, and electrophoresis was conducted at 4° C. in TB 1× for approximately 30 min at 240V, followed by fluorescence visualization. Quantification of the free RNA band intensity was carried out using the ImageJ software. A non-linear regression analysis was used to calculate EC50, based on a total of three experimental replicates. Same approach was developed with (FAM)-CCUG8 (DM2), CAG10 (SCA3), CGG10 (FXTAS), GGGGCC5 (ALS/FSD), UGGAA6 (SCA31) probes (see FIG. 9).

CAG FAM-RNA probe = assay: Gel retardation assay with FAM-CAG probe (SCA3)
Description: as §1, §2

GGGGCC FAM-RNA probe = assay: Gel retardation assay with FAM-GGGGCC probe (FTD/ALS)
Description: as §1, §2

CCUG FAM-RNA probe = assay: Gel retardation assay with FAM-CCUG probe (DM2)
Description: as §1, §2

Structure (SMILES): CN(C)CCc1cc2c(c3c1ccc1ccccc13)OCO2 [VLT002, Stephenanthrine]
- binding to CGG (FXTAS) probe (CGG FAM-RNA probe): caused retention of the complex in the well
- binding to CAG (SCA3) probe (CAG FAM-RNA probe): caused retention of the complex in the well
- binding to GGGGCC (FTD/ALS) probe (GGGGCC FAM-RNA probe): caused retention of the complex in the well
- binding to CCUG (DM2) probe (CCUG FAM-RNA probe): caused retention of the complex in the well
